The text below walks through data of PubChem BioAssay (NCI).

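Grown in 96-well plates, cells were treated for 48 hours with each compound at five concentrations. Insufficient inhibition: endpoint recorded as highest concentration tested. TGI denotes the concentration required for complete inhibition of growth.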

What all share (assay): growth of human tumour cells (NCI), 48 h
Assay [1] deals with OVCAR-5 ovarian.
The test system of assay [2] is SNB-19 CNS.
Assay [3] concerns SF-268 CNS.
The test system of assay [4] is MDA-N.
Assay [5] concerns HOP-92 NSCLC.
Assay [6] deals with UACC-62 melanoma.
Assay [7] relates to RPMI-8226 leukemia.
Assay [8] deals with EKVX NSCLC.
The subject of assay [9] is HOP-62 NSCLC.
In assay [10] the test system is SN12C renal.
Assay [11] relates to A498 renal.

`CCN(CC)C(=O)c1cc([N+](=O)[O-])c(=O)n2c1[nH]c1ccccc12`: the TGI in assay [1], in assay [2], in assay [3], in assay [4], in assay [5] and in assay [6] was greater than 100 µM in each case. Besides, the TGI in assay [7], in [8], in assay [9] and in assay [10] was greater than 100 µM each time.

Take `CC(C)=C=CP(=O)(O)c1ccccc1`: the TGI in [1], in assay [11], in [2], in assay [3], in assay [4] and in assay [5] was greater than 100 µM each time. Besides, the TGI in [6], in assay [8], in assay [9] and in assay [10] was greater than 100 µM in each case.

For the compound `Nc1c(C(=O)O)nnc2cc(Cl)ccc12`, the TGI in assay [1], in assay [11], in assay [2], in assay [3], in assay [4] and in assay [6] was greater than 100 µM in each case. Besides, the TGI in assay [8], in assay [9] and in assay [10] was greater than 100 µM throughout.

As to `Clc1ncnc2c1nc(C#Cc1ccccc1)n2C1CCCCO1` (stereo not drawn), the TGI came out at 4.84 µM in assay [1]; 8.84 µM in [11]; 6.22 µM in assay [2]; 6.22 µM in [3]; 8.12 µM in assay [4]; 3.83 µM in [5]. Also, the TGI came to 5.84 µM in [6], 3.67 µM in [8] and 6.38 µM in assay [9].

As for `Cc1ccc2c(=O)cc(-c3cccc(F)c3)[nH]c2n1`, the TGI is greater than 100 µM in [1]; greater than 100 µM in [3]; 0.0362 µM in [4]; greater than 100 µM in assay [5]; greater than 100 µM in assay [6]; greater than 19.8 µM in assay [7]. Besides, the TGI in assay [8], in assay [9] and in assay [10] was greater than 100 µM each time.

As for `O=NNc1c[nH]c(=O)[nH]c1=O`, the TGI in [11], in assay [2], in assay [4], in [5], in [6] and in [7] was greater than 100 µM throughout. Also, the TGI in assay [8], in assay [9] and in [10] was greater than 100 µM throughout.

In the case of `NS(=O)(=O)c1ccc(NCc2nc3ccccc3[nH]2)cc1`, the TGI in assay [1], in [11], in [2], in assay [3], in assay [4] and in assay [5] was greater than 100 µM each time. Further, the TGI in assay [6], in assay [8], in assay [9] and in assay [10] was greater than 100 µM each time.

With `CC1CN=C(c2ccc(CN3CCC(CCCC4CCN(Cc5ccc(C6=NCC(C)N6)cc5)CC4)CC3)cc2)N1` (stereo not drawn), the TGI in [1] was 63 µM; in assay [11], greater than 100 µM; in [2] it was 71.5 µM; in assay [3], greater than 100 µM; in [4], 38.8 µM; in assay [5], greater than 100 µM. The TGI was greater than 100 µM in assay [6], 92 µM in assay [8], greater than 100 µM in [9] and greater than 100 µM in [10].

As for `O=C(O)c1cccc(S(=O)(=O)NN2C(=O)CSC2c2c(O)ccc3ccccc23)c1` (stereo not drawn), the TGI is greater than 100 µM in [1]; 46.2 µM in assay [11]; 87 µM in assay [2]; 91.5 µM in [3]; greater than 100 µM in assay [4]; 66.4 µM in assay [6]. Also, the TGI in assay [8], in [9] and in assay [10] was greater than 100 µM in each case.

With `Cc1cc(OCc2nnc3n2N=C(c2cc(F)c(Cl)cc2Cl)/C(=C/c2ccc(-c4ccc(Cl)cc4)o2)S3)ccc1Cl`, the TGI in assay [1], in assay [11], in [2], in assay [3], in assay [4] and in assay [6] was greater than 50 µM in each case. Moreover, the TGI in assay [7] is 30.2 µM; in assay [8], greater than 50 µM; in assay [9], greater than 50 µM; in assay [10], greater than 50 µM.

As to `Cn1c(-c2c(C3=CC(=O)N(c4ccccc4)C3=O)c3ccccc3n2C)cc2ccccc21`, the TGI in assay [1], in assay [2], in assay [4], in [5], in assay [6] and in [7] was greater than 100 µM each time. The TGI in assay [8], in [9] and in assay [10] was greater than 100 µM in each case.

On to `CC(C)(CO)CNc1cc(Cl)nc(N)n1`, for which the TGI in assay [1], in [11], in assay [3], in assay [4], in assay [5] and in assay [6] was greater than 100 µM each time. The TGI in assay [7], in assay [8], in assay [9] and in assay [10] was greater than 100 µM each time.

`COc1ccc(C2NC(N)=C(C#N)C3=C2C(C)CCC3)cc1OC` (stereo not drawn): the TGI in [1], in assay [2], in assay [3], in assay [4], in [6] and in [7] was greater than 100 µM throughout. Further, the TGI in [8] is greater than 100 µM; in assay [9] it was 75.7 µM; in assay [10], greater than 100 µM.

On to `CC(C)N1[C@@H]2CCCC[C@H]2N(C(C)C)[P+]1=O`, for which the TGI in assay [1], in [11], in [3], in assay [4], in assay [5] and in assay [6] was greater than 100 µM each time. Moreover, the TGI in assay [7], in [8], in assay [9] and in [10] was greater than 100 µM each time.
